O=C1CSCCN1c1ccc(Cl)c(Cl)c1 [Example 1, 4-(3,4-Dichloro-phenyl)-thiomorpholin-3-one]
melting point: 81 to 83 °C

Reference: patent US6388127B1, “Process for preparing cyclic thioamides” (Pfizer INC, priority 1999, dated 2002)
